According to patent publication US11590128B2, “Combination therapy of a type II anti-CD20 antibody with a selective BCL-2 inhibitor” (GENENTECH, INC., priority 2012, dated 2023):

What was measured:
[1] = tested on: human Z138 mantle cell lymphoma cells; test: Tumor growth inhibition study in vivo, Z138 mantle cell lymphoma xenograft, Example 3; parameters: species or system SCID beige mice; conditions: day 35 after tumor cell inoculation; antibodies 1 mg/kg i.p. once weekly x3; GDC-0199 100 mg/kg p.o. once daily for 17 days
Description: Animals. […] Continuous health monitoring was carried out on regular basis.
Monitoring. Animals were controlled daily for clinical symptoms and detection of adverse effects.
Treatment of animals. […] The corresponding vehicle was administered on the same days.

[2] = tested on: DLBCL SU-DHL-4 xenograft; test: DLBCL SU-DHL-4 xenograft model, combination followed by single-agent GDC-0199, Example 4; type: in vivo, mice; conditions: GDC-0199 orally for 21 days, GA101 1 mg/kg QW for 3 weeks; alone or in combination
Description: At day 22 tumor bearing mice in the combination cohort continued to be dosed with GDC-0199 alone at 100 mg/kg for an additional 24 days.
As explained above, a cohort of tumor bearing mice was also dosed with GDC-0199 alone for an additional 24 days after combination treatment ended on day 21 (QD×45). Under the x-axis, treatment periods are denoted by solid black lines ( ? ) for the combination cohorts while the continued single agent GDC-0199 treatment is denoted by dashed black line ( ? ).

[3] = tested on: SU.DHL-4 diffuse large B-cell lymphoma xenograft; test: NHL xenograft model of aggressive lymphoma (DLBCL SU.DHL-4), Example 1; type: in vivo, mice
Source text: The study used a non-Hodgkin's lymphoma (NHL) xenograft model of aggressive lymphoma, the diffuse large B-cell lymphoma (DLBCL) derived cell line SU.DHL-4.
In FIG. 1, the dose of GDC-0199 is expressed as free base equivalents in mg/kg of body weight. Results are expressed as the fitted tumor volume as determined by linear mixed effects modeling for each treatment group vs. time in days, where Day 0 is the first day of treatment.

**Q.** What does the source list for `CC1(C)CCC(CN2CCN(c3ccc(C(=O)NS(=O)(=O)c4ccc(NCC5CCOCC5)c([N+](=O)[O-])c4)c(Oc4cnc5[nH]ccc5c4)c3)CC2)=C(c2ccc(Cl)cc2)C1` [GDC-0199, 2-(1H-pyrrolo[2,3-b]pyridin-5-yloxy)-4-(4-((2-(4-chlorophenyl)-4,4-dimethylcyclohex-1-enyl)methyl)piperazin-1-yl)-N-(3-nitro-4-(((tetrahydro-2H-pyran-4-yl)methyl)amino)phenylsulfonyl)benzamide]?
**A.** tumor growth inhibition compared to the control group [1]: 59%; tumor growth inhibition (TGI) [2]: 24%; tumor growth inhibition (TGI) ([3]; after three weeks of therapy (treatment ended day 21)): 80%; tumor growth inhibition (TGI) ([3]; at day 31 (10 days after dosing ended)): 25%; antitumor outcome (in words) ([3]; obinutuzumab 1 mg/kg IV once a week for 3 weeks, GDC-0199 100 mg/kg QD for 21 days, alone or combined): stasis followed by tumor growth delay

**Q.** For rituximab: type I anti-CD20 antibody, which “tumor growth inhibition compared to the control group” value [1] is on record?
**A.** 32%
